Test results: patent US20230212152A1, “INHIBITORS OF CYSTEINE PROTEASES AND METHODS OF USE THEREOF” (priority 2020, published 2023)
Read-outs that look alike come from different tables or passages of the source.

Tests used:
229E Mpro = target: T1, 229E Mpro (Human coronavirus 229E, UniProt P0C6X1); test: 229E Mpro assay (Table 3); format: biochemical, HCoV 229E
T1 construct: 229E Mpro
Method: Compounds are assayed using standard methods to assess compound activity and IC50. […] The assay buffer contains 20 mM of Tris-HCl (pH 7.3), 100 mM of NaCl, 1 mM of EDTA, 5 mM of TCEP and 0.1% BSA.

SARS-CoV2 Mpro = SARS-CoV2 Mpro (Severe acute respiratory syndrome coronavirus 2, UniProt P0DTD1); test: SARS-CoV2 Mpro enzymatic assay; format: biochemical; conditions: 25 nM Mpro, 25 μM substrate

T1 sequence (P0C6X1 2966-3267): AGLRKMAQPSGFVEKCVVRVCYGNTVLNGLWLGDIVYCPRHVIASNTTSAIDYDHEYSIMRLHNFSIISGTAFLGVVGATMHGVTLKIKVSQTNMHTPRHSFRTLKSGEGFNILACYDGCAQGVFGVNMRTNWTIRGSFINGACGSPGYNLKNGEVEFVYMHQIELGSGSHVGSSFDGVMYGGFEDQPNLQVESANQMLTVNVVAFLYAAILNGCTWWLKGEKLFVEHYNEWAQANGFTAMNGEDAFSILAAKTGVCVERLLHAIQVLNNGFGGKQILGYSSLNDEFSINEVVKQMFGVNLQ

SMILES | EC50 (229E Mpro; read-out: 229E Mpro EC50) | EC50 (229E Mpro; 229E Mpro EC50) | IC50 (SARS-CoV2 Mpro)
COc1cccc2[nH]c(C(=O)N[C@@H](CC3CC3)C(=O)N[C@H](C#N)C[C@@H]3CCCNC3=O)cc12 (single isomer, unassigned) [271A (Isomer 1)] | > 30000 nM | – | –
COc1cccc2[nH]c(C(=O)N3CC4(CCC4)CC3C(=O)N[C@H](C#N)C[C@@H]3CCNC3=O)cc12 (single isomer, unassigned) [399A (Isomer 2)] | 10000 to 30000 nM | – | –
Cc1ccn([C@H](CC2CC2)C(=O)N[C@H](C#N)C[C@@H]2CCNC2=O)c(=O)c1NCC(F)(F)F (single isomer, unassigned) [451 (Isomer 1)] | > 30000 nM | – | –
Cc1ccn(C(CC2CC2)C(=O)N[C@H](C#N)C[C@@H]2CCNC2=O)c(=O)c1NCC(F)(F)F (single isomer, unassigned) [451 (Isomer 2)] | – | 10000 to 30000 nM | –
N#CC(CC1CCNC1=O)NC(=O)C1CCc2ccc(NCC(=O)Oc3ccccc3)c(=O)n21 (single isomer, unassigned) [483 (Isomer 2)] | – | > 30000 nM | –
COc1cccc2[nH]c(C(=O)N[C@@H](CC3CC3)C(=O)N[C@H](C#N)C[C@@H]3CCCNC3=O)cc12 (single isomer, unassigned) [491A (Isomer 1)] | – | > 30000 nM | –
COc1cccc2[nH]c(C(=O)N3C[C@H]4CC[C@H]4[C@@H]3C(=O)N[C@H](C#N)C[C@@H]3CCNC3=O)cc12 (single isomer, unassigned) [547 (Isomer 2)] | < 2000 nM | – | –
Cc1ccn([C@H](CC2CC2)C(=O)N[C@H](C#N)C[C@@H]2CCNC2=O)c(=O)c1NC(=O)OC(C)(C)C (single isomer, unassigned) [591 (Isomer 1)] | > 30000 nM | – | –
COc1cccc2[nH]c(C(=O)N3CC4(CCCCC4)CC3C(=O)N[C@H](C#N)C[C@@H]3CCCNC3=O)cc12 (single isomer, unassigned) [603a (Isomer 2)] | > 30000 nM | – | –
COc1cc(Cl)c2[nH]c(C(=O)N3CC4(CCCCC4)CC3C(=O)N[C@H](C#N)C[C@@H]3CCNC3=O)cc2c1 (single isomer, unassigned) [896 (Isomer 1)] | < 2000 nM | – | < 2000 nM
COc1cc(Cl)c2[nH]c(C(=O)N3CC4(CCCCC4)CC3C(=O)N[C@H](C#N)C[C@@H]3CCNC3=O)cc2c1 (single isomer, unassigned) [896 (Isomer 2)] | > 30000 nM | – | > 30000 nM
CC1(C)CC(C[C@@H](C#N)NC(=O)[C@H](CC2CC2)NC(=O)c2cc3cccc(Cl)c3[nH]2)C(=O)N1 (single isomer, unassigned) [1053 (Isomer 2)] | 10000 to 30000 nM | – | –
CC(C)(C)[C@H](NC(=O)C(F)(F)F)C(=O)N1CC2(CCC2)CC1C(=O)N[C@H](C#N)C[C@@H]1CC2(CC2)NC1=O (single isomer, unassigned) [3039a (Isomer 1)] | – | 2000 to 10000 nM | < 2000 nM
CC1(C)C[C@@H](C[C@@H](C#N)NC(=O)C2CC3(CCC3)CN2C(=O)[C@@H](NC(=O)C(F)(F)F)C(C)(C)C)C(=O)N1 (single isomer, unassigned) [3071a (Isomer 1)] | – | 2000 to 10000 nM | < 2000 nM
CC1(C)C[C@@H](C[C@@H](C#N)NC(=O)C2CC3(CCC3)CN2C(=O)[C@@H](NC(=O)C(F)(F)F)C(C)(C)C)C(=O)N1 (single isomer, unassigned) [3071a (Isomer 2)] | – | > 30000 nM | > 30000 nM
CC1(C)C[C@@H](C[C@@H](C#N)NC(=O)[C@@H]2[C@@H]3[C@H](CN2C(=O)[C@@H](NC(=O)C(F)(F)F)C(C)(C)C)C3(C)C)C(=O)N1 (single isomer, unassigned) [3075 (Isomer 1)] | – | > 30000 nM | < 2000 nM
CC1(C)C[C@@H](C[C@@H](C#N)NC(=O)[C@@H]2[C@@H]3[C@H](CN2C(=O)[C@@H](NC(=O)C(F)(F)F)C(C)(C)C)C3(C)C)C(=O)N1 (single isomer, unassigned) [3075 (Isomer 2)] | – | 10000 to 30000 nM | < 2000 nM

SMILES | EC50 (229E Mpro; read-out: 229E Mpro EC50) | EC50 (229E Mpro; 229E Mpro EC50) | IC50 (SARS-CoV2 Mpro)
COc1cccc2[nH]c(C(=O)N[C@H](CC3CC3)C(=O)N[C@H](C#N)C[C@@H]3CCCNC3=O)cc12 (single isomer, unassigned; isomer 2) [491A (Isomer 2)] | < 2000 nM | – | –
COc1cccc2[nH]c(C(=O)N3C[C@H](C4CCCCC4)C[C@H]3C(=O)N[C@H](C#N)C[C@@H]3CCNC3=O)cc12 [Compound 167, (2S,4S)-N-((S)-1-cyano-2-((S)-2-oxopyrrolidin-3-yl)ethyl)-4-cyclohexyl-1-(4-methoxy-1H-indole-2-carbonyl)pyrrolidine-2-carboxamide] | 2000 to 10000 nM | – | –
N#C[C@H](C[C@@H]1CCNC1=O)NC(=O)[C@@H]1CS[C@H]2CC[C@H](NCC(F)(F)F)C(=O)N21 [Compound 455, (3R,6S,8aS)-N-[(1S)-1-cyano-2-[(3S)-2-oxopyrrolidin-3-yl]ethyl]-5-oxo-6-(2,2,2-trifluoroethylamino)-2,3,6,7,8,8a-hexahydrothiazolo[3,2-a]pyridine-3-carboxamide] | > 30000 nM | – | –
N#C[C@H](C[C@@H]1CCNC1=O)NC(=O)[C@@H]1CCc2ccc(NCC(=O)O)c(=O)n21 [Compound 501, 2-[[(3S)-3-[[(1S)-1-cyano-2-[(3S)-2-oxopyrrolidin-3-yl]ethyl]carbamoyl]-5-oxo-2,3-dihydro-1H-indolizin-6-yl]amino]acetic acid] | > 30000 nM | – | –
CC(C)(C)C[C@H](NC(=O)[C@@H](NC(=O)C(F)(F)F)C(C)(C)C)C(=O)N[C@H](C#N)C[C@@H]1CC2(CC2)NC1=O [Compound 3037] | – | < 2000 nM | < 2000 nM
CC(C)(C)[C@H](NC(=O)C(F)(F)F)C(=O)N1CC2(CCC2)CC1C(=O)N[C@H](C#N)C[C@@H]1CC2(CC2)NC1=O (stereo partly drawn) [Compound 3039b] | – | < 2000 nM | < 2000 nM
CC(C)(C)[C@H](NC(=O)C(F)(F)F)C(=O)N1CC2(CCCCC2)C[C@H]1C(=O)N[C@H](C#N)C[C@@H]1CC2(CC2)NC1=O [Compound 3041] | – | < 2000 nM | < 2000 nM
CC(C)(C)[C@H](NC(=O)C(F)(F)F)C(=O)N1C[C@H]2[C@@H]([C@H]1C(=O)N[C@H](C#N)C[C@@H]1CC3(CC3)NC1=O)C2(C)C [Compound 3043] | – | < 2000 nM | < 2000 nM
CC(C)(C)[C@H](NC(=O)C(F)(F)F)C(=O)N[C@@H](CC1CC1(F)F)C(=O)N[C@H](C#N)C[C@@H]1CC2(CC2)NC1=O (stereo partly drawn) [Compound 3045] | – | < 2000 nM | < 2000 nM
CC1(C)C[C@@H](C[C@@H](C#N)NC(=O)[C@H](CC2CC2)NC(=O)[C@@H](NC(=O)C(F)(F)F)C(C)(C)C)C(=O)N1 [Compound 3065, (S)-N-((S)-1-(((S)-1-cyano-2-((R)-5,5-dimethyl-2-oxopyrrolidin-3-yl)ethyl)amino)-3-cyclopropyl-1-oxopropan-2-yl)-3,3-dimethyl-2-(2,2,2-trifluoroacetamido)butanamide] | – | > 30000 nM | < 2000 nM
CC(C)(C)C[C@H](NC(=O)[C@@H](NC(=O)C(F)(F)F)C(C)(C)C)C(=O)N[C@H](C#N)C[C@@H]1CC(C)(C)NC1=O [Compound 3069, (S)-N-((S)-1-cyano-2-((R)-5,5-dimethyl-2-oxopyrrolidin-3-yl)ethyl)-2-((S)-3,3-dimethyl-2-(2,2,2-trifluoroacetamido)butanamido)-4,4-dimethylpentanamide] | – | > 30000 nM | < 2000 nM
CC1(C)C[C@@H](C[C@@H](C#N)NC(=O)[C@@H]2CC3(CCCCC3)CN2C(=O)[C@@H](NC(=O)C(F)(F)F)C(C)(C)C)C(=O)N1 [Compound 3073, (3S)-N-[(1S)-1-cyano-2-[(3R)-5,5-dimethyl-2-oxo-pyrrolidin-3-yl]ethyl]-2-[(2S)-3,3-dimethyl-2-[(2,2,2-trifluoroacetyl)amino]butanoyl]-2-azaspiro[4.5]decane-3-carboxamide] | – | 2000 to 10000 nM | < 2000 nM
CC1(C)C[C@@H](C[C@@H](C#N)NC(=O)[C@@H]2[C@@H]3[C@H](CN2C(=O)[C@@H](NC(=O)C(F)(F)F)C(C)(C)C)C3(C)C)C(=O)N1 [Compound 3075, (1R,2S,5S)-N-((S)-1-cyano-2-((R)-5,5-dimethyl-2-oxopyrrolidin-3-yl)ethyl)-3-((S)-3,3-dimethyl-2-(2,2,2-trifluoroacetamido)butanoyl)-6,6-dimethyl-3-azabicyclo[3.1.0]hexane-2-carboxamide] | – | 10000 to 30000 nM | < 2000 nM
CC(C)(C)C[C@H](NC(=O)[C@@H](NC(=O)C(F)(F)F)C(C)(C)C)C(=O)N[C@H](C#N)C[C@@H]1CCCNC1=O [Compound 3129, (S)-N-((S)-1-cyano-2-((S)-2-oxopiperidin-3-yl)ethyl)-2-((S)-3,3-dimethyl-2-(2,2,2-trifluoroacetamido)butanamido)-4,4-dimethylpentanamide] | – | < 2000 nM | < 2000 nM
CN(C(=O)[C@@H](NC(=O)C(F)(F)F)C(C)(C)C)[C@@H](CC1CC1)C(=O)N[C@H](C#N)C[C@@H]1CCCNC1=O [Compound 3131] | – | 10000 to 30000 nM | < 2000 nM
CC(C)(C)[C@H](NC(=O)C(F)(F)F)C(=O)N1C[C@H]2[C@@H]([C@H]1C(=O)N[C@H](C#N)C[C@@H]1CCCNC1=O)C2(C)C [Compound 3133, (1R,2S,5S)-N-[(1S)-1-cyano-2-[(3S)-2-oxo-3-piperidyl]ethyl]-3-[(2S)-3,3-dimethyl-2-[(2,2,2-trifluoroacetyl)amino]butanoyl]-6,6-dimethyl-3-azabicyclo[3.1.0]hexane-2-carboxamide] | – | < 2000 nM | < 2000 nM
CC(C)(C)[C@H](NC(=O)C(F)(F)F)C(=O)N1C[Si](C)(C)C[C@H]1C(=O)N[C@H](C#N)C[C@@H]1CC2(CC2)NC1=O [Compound 3135] | < 2000 nM | – | < 2000 nM
